Data on eleven compounds can be found in ChEMBL document CHEMBL1201862, “PubChem BioAssay data set” (2004).

Among the test systems are OVCAR-8; UO-31; EKVX; OVCAR-5; A498; HCC 2998; NCI-H23; SR; RXF 393; MDA-MB-435; SF-268; MOLT-4; CCRF-CEM; LOX IMVI; A549; SN12C; SNB-19; SW-620; CAKI-1; NCI-H522.
Common to all, as to assay: DTP human tumour cell line panel, 48 h

Counter-ions that a name gives are not always drawn.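 Step 1: Grow cells in 96-well plates. Step 2: Expose to compound for 48 hours at 5 concentrations. Step 3: Interpolate endpoints linearly; if unreached, use highest concentration. GI50 = concentration required for 50% inhibition of growth.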 Activity calls are given as the source filed them. Cut-off read from the data, not from the text of the source: active = GI50 up to about 1.1 µM and inactive = higher.

One may read the GI50 as the concentration at which growth is held to half of that of the control. As to `Fc1ccc2c3c([nH]c2c1)CCNC3`, the GI50 in the assay on OVCAR-8 was > 100 µM (inactive); with UO-31, 31.8 µM (inactive); with EKVX, > 100 µM (inactive); with OVCAR-5, > 100 µM (inactive); in the assay with A498, 20.4 µM (inactive); in the assay with HCC 2998 it was 76 µM (inactive). The GI50 was > 100 µM (inactive) in the assay on NCI-H23; > 100 µM (inactive) with SR; > 100 µM (inactive) with RXF 393; 77.1 µM (inactive) in the assay on MDA-MB-435; > 100 µM (inactive) with SF-268; > 100 µM (inactive) in the assay on MOLT-4. Further, the GI50 in the assay on CCRF-CEM, in the assay with LOX IMVI, with A549, in the assay on SN12C, in the assay on SNB-19 and in the assay with SW-620 was > 100 µM (inactive) in each case.

In the case of `CC(C)=CCc1c(O)c(CC=C(C)C)c2oc3c(c(=O)c2c1O)C(C=C(C)C)Oc1cc(O)ccc1-3` (stereo unspecified), the GI50 in the assay on OVCAR-8 was 6.85 µM (inactive); with UO-31 it was 4.19 µM (inactive); with EKVX it was 3.88 µM (inactive); with OVCAR-5, 18.5 µM (inactive); in the assay on A498 it was 16.2 µM (inactive); with NCI-H23, 4.67 µM (inactive). Also, the GI50 in the assay on SR was 2.49 µM (inactive); in the assay on RXF 393, 3.12 µM (inactive); in the assay on MDA-MB-435 it was 3.53 µM (inactive); with SF-268, 6.07 µM (inactive); with CAKI-1, 5.87 µM (inactive); with NCI-H522, 3.9 µM (inactive). The GI50 is 3.84 µM (inactive) in the assay with MOLT-4; 0.804 µM (active) in the assay with CCRF-CEM; 5.15 µM (inactive) in the assay on LOX IMVI; 5.2 µM (inactive) in the assay on A549; 6.9 µM (inactive) with SN12C; 10.5 µM (inactive) in the assay on SNB-19. In the assay on SW-620, the GI50 was 4.17 µM (inactive).

Take `C[N+]12C=CC=C1C(N1CCCC1)c1scc(-c3ccccc3)c12` (stereo unspecified): the GI50 in the assay on OVCAR-8 is 22.5 µM (inactive); in the assay on UO-31, > 100 µM (inactive); in the assay on EKVX, 14.5 µM (inactive); in the assay with OVCAR-5, 64.1 µM (inactive); with A498 it was 38.5 µM (inactive); in the assay with SR, 12.6 µM (inactive). Besides, the GI50 is 17.8 µM (inactive) in the assay with RXF 393; 36.2 µM (inactive) in the assay with MDA-MB-435; 15.6 µM (inactive) with SF-268; > 100 µM (inactive) in the assay with CAKI-1; 3.28 µM (inactive) in the assay on NCI-H522; 19.3 µM (inactive) in the assay on MOLT-4. For the same compound, the GI50 in the assay with CCRF-CEM is 22.4 µM (inactive); with LOX IMVI it was 37.4 µM (inactive); with A549 it was 59.8 µM (inactive); with SN12C, 5.26 µM (inactive); in the assay on SNB-19, 10.6 µM (inactive); in the assay with SW-620, 93.3 µM (inactive).

On to `C/C(=N\NC(=S)NCc1ccccc1)c1nc2cccnc2[nH]1`, for which the GI50 in the assay on OVCAR-8 was 10.1 µM (inactive); in the assay with UO-31 it was 1.94 µM (inactive); in the assay on EKVX, 2.88 µM (inactive); in the assay with OVCAR-5, 7.23 µM (inactive); in the assay with A498, 17.3 µM (inactive); in the assay on HCC 2998, 20.1 µM (inactive). Moreover, the GI50 with NCI-H23 was 12.8 µM (inactive); in the assay with SR, 4.62 µM (inactive); in the assay on MDA-MB-435 it was 12.4 µM (inactive); in the assay on SF-268, 4.62 µM (inactive); in the assay on CAKI-1 it was 6.52 µM (inactive); with NCI-H522, 15.1 µM (inactive). Also, the GI50 was 3.44 µM (inactive) in the assay on MOLT-4; 3.27 µM (inactive) with CCRF-CEM; 6.12 µM (inactive) in the assay on LOX IMVI; 6.38 µM (inactive) in the assay on A549; 15.7 µM (inactive) with SN12C; 6.49 µM (inactive) in the assay on SNB-19. For the same compound, the GI50 in the assay on SW-620 was 9.66 µM (inactive).

`N=C(N)NCCCC(NC(=O)OCCCCn1ccc(N)nc1=O)C(=O)O` (stereo unspecified): the GI50 with UO-31, in the assay on EKVX, with OVCAR-5, in the assay with A498, with HCC 2998 and in the assay on NCI-H23 was > 100 µM (inactive) in each case. The GI50 in the assay with SR, in the assay with RXF 393, in the assay with MDA-MB-435, with SF-268, with CAKI-1 and in the assay on MOLT-4 was > 100 µM (inactive) each time. The GI50 with CCRF-CEM, in the assay with LOX IMVI, in the assay with A549, in the assay with SN12C, with SNB-19 and with SW-620 was > 100 µM (inactive) each time.

As for `CC1=NN(c2nc(N)nc(CSc3nc4n(c(=S)n3)CCN4)n2)C(C)(C)C1`, the GI50 with OVCAR-8 was 18.3 µM (inactive); with EKVX, 27.4 µM (inactive); with A498 it was 39.7 µM (inactive); with HCC 2998 it was > 100 µM (inactive); in the assay on NCI-H23, 47.5 µM (inactive); with SR, > 100 µM (inactive). In addition, the GI50 in the assay with RXF 393 was 15.6 µM (inactive); with MDA-MB-435, > 100 µM (inactive); with SF-268, 15.3 µM (inactive); in the assay with CAKI-1, 25.2 µM (inactive); with MOLT-4, > 100 µM (inactive); with CCRF-CEM it was > 100 µM (inactive). Besides, the results for the GI50 in the assay on LOX IMVI, with SNB-19 and in the assay on SW-620 were 43.6 µM (inactive), 37.9 µM (inactive) and > 100 µM (inactive), respectively.

Consider `CCOC(=O)/C(=C\NC(C)(C)C)c1nc2ccccc2[nH]1`, for which the GI50 in the assay with OVCAR-8 is 26.1 µM (inactive); in the assay with UO-31 it was 0.466 µM (active); in the assay on EKVX, 12.2 µM (inactive); in the assay with OVCAR-5 it was 21.5 µM (inactive); in the assay with A498, 25.1 µM (inactive); in the assay on NCI-H23 it was 17.7 µM (inactive). For the same compound, the GI50 in the assay with SR was 12.7 µM (inactive); in the assay with RXF 393, 23.5 µM (inactive); in the assay with MDA-MB-435 it was 20 µM (inactive); in the assay on SF-268 it was 23.7 µM (inactive); in the assay on CAKI-1 it was 29.2 µM (inactive); in the assay on NCI-H522 it was 20.2 µM (inactive). Moreover, the GI50 in the assay on CCRF-CEM was 17.7 µM (inactive); in the assay on LOX IMVI it was 21.9 µM (inactive); with A549, 29.4 µM (inactive); with SN12C, 28.3 µM (inactive); with SNB-19, 39.3 µM (inactive); in the assay on SW-620 it was 25.3 µM (inactive).

On to `C/C(=N\NC(N)=S)c1cccs1.OB(O)c1ccccc1`, for which the GI50 in the assay with OVCAR-8 is > 100 µM (inactive); with UO-31 it was 66.7 µM (inactive); in the assay on OVCAR-5, > 100 µM (inactive); with A498 it was > 100 µM (inactive); with HCC 2998 it was > 100 µM (inactive); with NCI-H23 it was > 100 µM (inactive). Besides, the GI50 in the assay on SR is > 100 µM (inactive); in the assay on MDA-MB-435, > 100 µM (inactive); in the assay on SF-268 it was > 100 µM (inactive); in the assay on NCI-H522 it was 70.6 µM (inactive); in the assay with MOLT-4 it was > 100 µM (inactive); in the assay on CCRF-CEM, > 100 µM (inactive). Also, the GI50 in the assay with LOX IMVI, with A549, in the assay with SN12C, with SNB-19 and in the assay with SW-620 was > 100 µM (inactive) throughout.

As to `C=CCN1CCN([C@H](c2ccc(C(=O)N(CC)CC)cc2)c2cccc(OC)c2)CC1`, the GI50 in the assay with OVCAR-8, in the assay with UO-31, in the assay on EKVX, in the assay on OVCAR-5, with A498 and in the assay with NCI-H23 was > 25 µM (inactive) throughout. For the same compound, the GI50 with SR, in the assay with MDA-MB-435, in the assay on SF-268, in the assay on CAKI-1, with NCI-H522 and in the assay with MOLT-4 was > 25 µM (inactive) each time. The GI50 in the assay with A549, in the assay on SN12C, with SNB-19 and in the assay on SW-620 was > 25 µM (inactive) each time.

Take `COc1cc(-c2oc3c(OC)c(O)c(OC)c(O)c3c(=O)c2OC)cc(OC)c1OC`: the GI50 in the assay with OVCAR-8 was 53.7 µM (inactive); in the assay with UO-31, 17.3 µM (inactive); with EKVX, > 100 µM (inactive); in the assay with OVCAR-5, > 100 µM (inactive); in the assay on A498 it was 51.2 µM (inactive); in the assay on HCC 2998, 52.4 µM (inactive). Also, the GI50 in the assay on NCI-H23 was > 100 µM (inactive); in the assay on SR, 51.2 µM (inactive); with MDA-MB-435, 35.4 µM (inactive); in the assay with SF-268 it was 21 µM (inactive); in the assay with CAKI-1, 42.8 µM (inactive); with NCI-H522 it was 17.4 µM (inactive). For the same compound, the GI50 in the assay on MOLT-4 was 59.6 µM (inactive); in the assay with CCRF-CEM, 47.9 µM (inactive); in the assay on LOX IMVI, 35.4 µM (inactive); in the assay on A549 it was > 100 µM (inactive); in the assay with SN12C it was > 100 µM (inactive); with SNB-19, > 100 µM (inactive). The GI50 in the assay on SW-620 is > 100 µM (inactive).

In the case of `CCc1ccc2c(c1)N(CC(C)CN(C)C)c1ccccc1S2` (stereo unspecified) [ETYMEMAZINE HYDROCHLORIDE], the GI50 in the assay with OVCAR-8 is 7.94 µM (inactive); in the assay on UO-31 it was 2.73 µM (inactive); with EKVX it was 11.4 µM (inactive); in the assay with OVCAR-5 it was 4.98 µM (inactive); in the assay with A498, 7.38 µM (inactive); in the assay on NCI-H23, 7.64 µM (inactive). The GI50 is 0.298 µM (active) in the assay with SR; 2.79 µM (inactive) with RXF 393; 2.87 µM (inactive) in the assay on MDA-MB-435; 7.5 µM (inactive) with SF-268; 5.06 µM (inactive) in the assay on CAKI-1; 2.87 µM (inactive) in the assay on NCI-H522. For the same compound, the GI50 in the assay on MOLT-4 was 0.736 µM (active); with CCRF-CEM, 2.18 µM (inactive); in the assay on LOX IMVI it was 3.54 µM (inactive); with A549 it was 8.39 µM (inactive); in the assay with SN12C it was 7.21 µM (inactive); in the assay on SNB-19, 10.6 µM (inactive). Moreover, the GI50 in the assay on SW-620 was 5.53 µM (inactive).
